The text below walks through data of ChEMBL document CHEMBL1126719, “The solution conformation of (D)Phe-Pro-containing peptides: implications on the activity of Ac-(D)Phe-Pro-boroArg-OH, a potent thrombin inhibitor” (J Med Chem, 1993).

pKi: −log10 of the molar value.

The test has as its target Prothrombin (Homo sapiens, UniProt P00734). Briefly: Inhibition constant for binding with thrombin was determined.
As a reminder, the pKi is the negative decadic logarithm of the Ki, by convention in mol/L. High values mean a low Ki, low ones a high Ki. Molecule `CC(C)(C)OC(=O)N[C@H](Cc1ccccc1)C(=O)NCC(=O)NC(CCCN=C(N)N)B(O)O` (stereo not given in full) showed a negative logarithm of the Ki (pKi) of 9.40.
For `CC(C)(C)OC(=O)N[C@H](Cc1ccccc1)C(=O)N1CCC[C@H]1C(=O)NC(CCCN=C(N)N)B(O)O` (stereo not given in full) the value was 11.40; for `CC(=O)N[C@H](Cc1ccccc1)C(=O)NCC(=O)NC(CCCN=C(N)N)B(O)O` (stereo not given in full), 8.37.
For `CC(=O)N1CCC[C@H]1C(=O)NC(CCCN=C(N)N)B(O)O` (stereo not given in full) the value was 8.48.
Next, `CC(=O)NCC(=O)NC(CCCN=C(N)N)B(O)O` (stereo not given): 7.59.
